Structures can show the parent of a compound that is named as a salt. Where two headings read alike, the source gives them in different places.
Assays:
human corona virus = details: cited from earlier work
influenza viruses = details: cited from earlier work
adenovirus = details: cited from earlier work
ICAM-1 = details: treated cells; cited from earlier work
rhinovirus [1] = details: in particular human tracheal epithelial cells, rhinovirus group 14; cited from earlier work
rhinovirus [2] = experiment: Blocking of rhinovirus infection of epithelial cells; effective inhibitory concentrations (Tables 1 and 2, FIG. 3); assay type: cell-based
From the text: (§1) Rhinovirus capable of viral replication causes the release of the pro-inflammatory […] chemokines, IP-10 and RANTES from infected epithelial cells.
(§2) For purposes of illustration, the effects of targeted delivery as opposed to systemic delivery of a representative anti-malarial, hydroxychloroquine, for prevention of rhinovirus infection is compared. As shown in Tables 1 and 2 and in FIG. 3, the effective inhibitory concentrations of this agent ranges from about 50 to 1000 microM (or about 20 to 400 micrograms/ml). Safe oral dosing of anti-malarials, such as chloroquine and hydroxychloroquine yields serum levels far below these ranges: 0.6 to 0.9 microM for chloroquine and 1.4 to 1.5 microM for hydroxychloroquine (MacKenzie, A H, “Pharmacologic actions of the 4-aminoquinoline compounds”, Am J Med, 1983, July: 5-10). Moreover, the inventor has noted that oral or systemic administration of HCQ cannot provide adequate plasma levels of HCQ to achieveefficacious results. Even at doses nearly twice that used in humans, peak serum concentrations following intravenous of administration of 10 mg/kg HCQ in rats was only 2 mcg/ml (FIG. 4); in dogs, peak whole blood concentrations were less than 3 mcg/ml (FIG. 5).

[3] = cited from earlier work
[4] = in vivo, po; cited from earlier work
IP-10/RANTES = experiment: Effect of HCQ on IP-10/RANTES production in primary human epithelial cells with exposure to HRV-16; assay type: cell-based
From the text: FIG. 1 graphically depicts the effect of 50 μm HCQ in the elaboration of IP-10 and RANTES in primary human epithelial cells with exposure to human rhinovirus type 16.
as §1
(§3) For example, treatment with hydroxychloroquine blocks the elaboration of the pro-inflammatory chemokines, IP-10 and RANTES from both primary tonsillar and immortalized epithelial cell lines (Table 1 & 2, FIG. 1 & 2). Since these chemokines figure prominently in generation of inflammatory responses and symptoms, this effect has important therapeutic implications.

asthma = details: oral; cited from earlier work
[5] = test system: antigen-induced early (EAR) and late airway responses (LAR) and airway hyperresponsiveness (AHR); details: aerosolized; total dose of only 10 mg/d; cited from earlier work
[6] = design: species or system dogs; details: dog, in vivo, iv
From the text: FIG. 5 graphically depicts the mean whole blood concentration of HCQ following single day intravenous doses to male and female dogs.
as §2

[7] = design: species or system rats; details: rat, in vivo, iv, 10 mg/kg
From the text: FIG. 4 graphically depicts the mean whole blood concentration of HCQ following single day intravenous doses to male and female rats.
as §2

IP-10 and RANTES = experiment: HCQ preincubation of BEAS-2B epithelial cells exposed to HRV-16, assayed for IP-10 and RANTES; assay type: cell-based, human; details: for IP-10: 6 hours preincubation / IP-10: 24 hours preincubation / RANTES: 6 hours preincubation: BEAS-2B
Description: FIG. 2 depicts graphically the effect of varying concentrations of HCQ preincubation on the elaboration of […] and RANTES in BEAS-2B epithelial cells exposed to human rhinovirus-16.
as §1, §3

Eosinophil = Eosinophil total superoxide production (FIG. 3); assay type: cell-based
From the text: FIG. 3 graphically depicts the effect of HCQ on Eosinophil total Superoxide production. In FIG. 3, nil refers to control, i.e., the absence of HCQ; PMA refers to phorbol myristic acetate; PAF refers to platelet activating factor, and SE refers to standard error of the mean. The data in FIG. 3 are presented as means±SE; n=3. The * indicates p<0.05; ** indicates p<0.01.
Anti-malarial agents also block the secondary aspects of rhinovirus infections. Without wishing to be bound, it is believed that they are inhibit by blocking the secondary events of viral infections.

Cl.N [ammonium chloride]
infection of human corona virus (human corona virus): block infection | cellular infection by influenza viruses (influenza viruses): block cellular infection | cellular infection by adenovirus (adenovirus): block cellular infection

CO/C1=C\C(C)=C\[C@@H](C)[C@@H](O)[C@@H](C)C/C(C)=C/C=C/[C@H](OC)[C@@H]([C@@H](C)[C@@H](O)[C@H](C)[C@@]2(O)C[C@@H](O)[C@H](C)[C@@H](C(C)C)O2)OC1=O [bafilomycin A1]
infection of human corona virus (human corona virus): block infection | expression of ICAM-1 (ICAM-1): reduces expression | infection by rhinovirus (rhinovirus [1]): inhibit infection | cellular infection by influenza viruses (influenza viruses): block cellular infection | cellular infection by adenovirus (adenovirus): block cellular infection

CCN(CC)CCCC(C)Nc1ccnc2cc(Cl)ccc12 (stereo not shown) [chloroquine]
rhinovirus infection of epithelial cells (rhinovirus [2]): block rhinovirus infection | cellular infection by influenza viruses (influenza viruses): block cellular infection | cellular infection by adenovirus (adenovirus): block cellular infection

CCN(CCO)CCCC(C)Nc1ccnc2cc(Cl)ccc12 (stereo not shown) [hydroxychloroquine sulfate]
solubility in water [3]: readily soluble in water

hydroxychloroquine [HCQ]
serum levels [4]: 1400 to 1500 nM | IP-10: hours of preincubation 24 (IP-10/RANTES; HRV-16 + 50 microM HCQ, 24 hours of preincubation, primary human epithelial cells): 31 pg/mL | IP-10: hours of preincubation 48 (IP-10/RANTES; HRV-16 + 50 microM HCQ, 48 hours of preincubation, primary human epithelial cells): 112 pg/mL | RANTES: hours of preincubation 48 (IP-10/RANTES; HRV-16 + HCQ, 48 hours of preincubation, primary human epithelial cells): 509 pg/mL | release of pro-inflammatory CXC chemokines (IP-10/RANTES; primary epithelial cells treated, then infected with RV): do not release | time of treatment after which therapeutic effect begins (asthma): > 22 weeks | rhinovirus infection of epithelial cells (rhinovirus [2]): block rhinovirus infection | effect in asthmatic sheep [5]: therapeutic effects | peak whole blood concentrations [6]: less than 3 mcg/ml | peak serum concentrations [7]: 2 µg/mL | IP-10: 6 hours preincubation (IP-10 and RANTES; HRV-16 + 0.01 μM HCQ): 3084 pg/mL | IP-10: 24 hours preincubation (IP-10 and RANTES; HRV-16 + 0.01 μM HCQ): 2506 pg/mL | RANTES: 6 hours preincubation (IP-10 and RANTES; HRV-16 + 0.01 μM HCQ): 3326 pg/mL | IP-10: 6 hours preincubation (IP-10 and RANTES; HRV-16 + 0.1 μM HCQ): 2914 pg/mL | IP-10: 24 hours preincubation (IP-10 and RANTES; HRV-16 + 0.1 μM HCQ): 1814 pg/mL | RANTES: 6 hours preincubation (IP-10 and RANTES; HRV-16 + 0.1 μM HCQ): 3128 pg/mL | IP-10: 6 hours preincubation (IP-10 and RANTES; HRV-16 + 1 μM HCQ): 3045 pg/mL | IP-10: 24 hours preincubation (IP-10 and RANTES; HRV-16 + 1 μM HCQ): 2098 pg/mL | RANTES: 6 hours preincubation (IP-10 and RANTES; HRV-16 + 1 μM HCQ): 1994 pg/mL | IP-10: 6 hours preincubation (IP-10 and RANTES; HRV-16 + 50 μM HCQ): 31 pg/mL | IP-10: 24 hours preincubation (IP-10 and RANTES; HRV-16 + 50 μM HCQ): 31 pg/mL | RANTES: 6 hours preincubation (IP-10 and RANTES; HRV-16 + 50 μM HCQ): 0 pg/mL | release of pro-inflammatory CXC chemokines (IP-10 and RANTES; pre-incubation of immortalized epithelial cells (BEAS-2B)): has the same effect | concentration at which IL-5 or PAF induced eosinophil superoxide is inhibited (Eosinophil): at least 0.5 mM | concentration at which IL-5 or PAF induced eosinophil superoxide is inhibited (Eosinophil; conversion of the mM value): about 200 mcg/ml
